From patent US10059740B2, “Integrin interaction inhibitors for the treatment of cancer” (H. LEE MOFFITT CANCER CENTER AND RESEARCH INSTITUTE, INC., priority 2010, dated 2018) come the findings set out here.

Starred links: 1 amine or outer side, 2 acyl side, 3 side chain; linkers in the order of their positions; H or OH if unused. Positions of bridges follow the written chain, without caps; N, C: chain ends. Non-standard residues stand in square brackets, D forms with d. Residues, ends and D or L forms follow the SMILES beside them. No end group written: not given here. *: point of attachment. dProlinol(O-CH2CO) = O=C(COC[C@H]1CCCN1[*:1])[*:2]; N(2-Aminoethyl)Gly = O=C(CN(CCN[*:3])[*:1])[*:2]; Nle = CCCC[C@H](N)C(=O)O; Ms = CS(=O)(=O)*; Sar = CNCC(=O)O

In the first test the test system is H929 myeloma cells. The test is classed as cell-based. Particulars: 24 h. As for the experimental part:
H929 cells were treated for 24 hours with varying concentrations of peptide. Cell death was measured by Topro-3 staining and FACS analysis. The IC50 values were obtained from linear regression analysis and an average value was obtained from 3 independent experiments.
Table 4 legend: Structure activity relationship in H929 myeloma cells of cyclic INTEGRIN INTERACTION INHIBITORS derivatives. The minimal bioactive core sequence of INTEGRIN INTERACTION INHIBITORS WSVVM (SEQ ID NO:85) was cyclized using 2 novel reduced amide bond beta turn promoters and KLKLK (SEQ ID NO:27) as the non-recognition sequence. H929 cells were treated with varying concentrations of the indicated peptide for 24 h. Cell viability was determined using Topro-3 staining and FACS analysis after drug treatment. IC50 values were generated from linear regressions generated from the dose response curves (n=mean of 3 independent experiments).
Using combinatorial peptide libraries and a functional binding assay, several peptides have been identified that inhibited α2β1 and α6β1 integrin mediated adhesion of prostate cancer cells to fibronectin, laminin and collagen IV.^1 They identified an all D-amino acid containing peptide referred as HYD1 ([…]) (SEQ ID NO:278) that blocks binding of epithelial prostate carcinoma cells to extracellular matrix components.^2,3 Hazlehurst and co-workers have truncated the N- and C-termini and alanine scan studies identified MVISW (SEQ ID NO:279) as the likely core region of linear D-HYD1 required for biological activity. […] The pentapeptide (KLKLK) (SEQ ID NO:27) was selected as the non-recognition strand to improve the solubility. N- to C-terminus cyclization of linear peptides was done to restrict the number of conformations available to the linear peptide which increases the affinity of the cyclized peptide for its target when the constraint stabilizes the bound conformation of the peptide. We synthesized cyclic D-HYD1 using a novel methylsulfonamide aminoethyl glycine linker T1 that connects two anti-parallel strands. […] The inverso- (peptide 2, Table 4) and partially modified retro-inverso (PMRI) (peptide 10) pentapeptide sequences of the recognition strand of cyclic III (Integrin Interaction Inhibitors also known as cyclic L-HYD1) peptide analogs were subsequently investigated for their potential to block beta integrin mediated cell adhesion. The retro-inverso design of biologically active peptides is a well-known strategy to design all D-amino acid peptides from potentially bioactive all L-peptide sequences with increased stability^4-7.
A colony forming assay was used to compare induced cell death in H929 multiple myeloma cells. Cells were treated with integrin interaction inhibitors, shown in FIG. 5 and Table 4, and cell death was measured following 24 hour peptide treatment by TOPRO-3 staining and FACS analysis.
Compound `CCCC[C@@H]1NC(=O)[C@H](C(C)C)NC(=O)[C@H](C(C)C)NC(=O)[C@H](C)NC(=O)[C@H](Cc2c[nH]c3ccccc23)NC(=O)CN(S(C)(=O)=O)CCNC(=O)[C@H](CCCCN)NC(=O)[C@H](CC(C)C)NC(=O)[C@H](CCCCN)NC(=O)[C@H](CC(C)C)NC(=O)[C@H](CCCCN)NC(=O)CN(S(C)(=O)=O)CCNC1=O` [Peptide 11, KLKLKT1WAVVN*T1] gave an IC50 of 12 µM. `CSCC[C@@H]1NC(=O)[C@H](C(C)C)NC(=O)[C@H](C(C)C)NC(=O)[C@H](CO)NC(=O)[C@H](Cc2c[nH]c3ccccc23)NC(=O)CN(S(C)(=O)=O)CCNC(=O)[C@H](CCCCN)NC(=O)[C@H](CC(C)C)NC(=O)[C@H](CCCCN)NC(=O)[C@H](CC(C)C)NC(=O)[C@H](CCCCN)NC(=O)CN(S(C)(=O)=O)CCNC1=O` [III 8] displayed an IC50 of 6.7 µM. Still for that read-out and setting: the value for `CCCC[C@@H]1NC(=O)[C@H](C(C)C)NC(=O)[C@H](C)NC(=O)[C@H](C)NC(=O)[C@H](Cc2c[nH]c3ccccc23)NC(=O)CN(S(C)(=O)=O)CCNC(=O)[C@H](CCCCN)NC(=O)[C@H](CC(C)C)NC(=O)[C@H](CCCCN)NC(=O)[C@H](CC(C)C)NC(=O)[C@H](CCCCN)NC(=O)CN(S(C)(=O)=O)CCNC1=O` [Peptide 14, KLKLKT1WAAVN*T1] was 41 µM; that for `CC(C)C[C@@H]1NC(=O)[C@H](CCCCN)NC(=O)CN(S(C)(=O)=O)CCNC(=O)[C@H](C)NC(=O)[C@H](C(C)C)NC(=O)[C@H](C(C)C)NC(=O)[C@H](C)NC(=O)[C@H](Cc2c[nH]c3ccccc23)NC(=O)CN(S(C)(=O)=O)CCNC(=O)[C@H](CCCCN)NC(=O)[C@H](CC(C)C)NC(=O)[C@H](CCCCN)NC1=O` [Peptide 12, KLKLKT1WAVVAT1] was 69 µM.

In turn, `CCCC[C@@H]1NC(=O)[C@H](C(C)C)NC(=O)[C@H](C(C)C)NC(=O)[C@H](C)NC(=O)[C@H](C)NC(=O)CN(S(C)(=O)=O)CCNC(=O)[C@H](CCCCN)NC(=O)[C@H](CC(C)C)NC(=O)[C@H](CCCCN)NC(=O)[C@H](CC(C)C)NC(=O)[C@H](CCCCN)NC(=O)CN(S(C)(=O)=O)CCNC1=O` [Peptide 15, KLKLKT1AAVVN*T1] had an IC50 of 3 µM. The same measure, in the same setting: the value for `CCCC[C@@H]1NC(=O)CN(S(C)(=O)=O)CCNC(=O)[C@H](CCCCN)NC(=O)[C@H](CC(C)C)NC(=O)[C@H](CCC(N)=O)NC(=O)[C@H](CC(C)C)NC(=O)[C@H](CCCCN)NC(=O)COC[C@H]2CCCN2C(=O)[C@H](Cc2c[nH]c3ccccc23)NC(=O)[C@H](C)NC(=O)[C@H](C(C)C)NC(=O)[C@H](C(C)C)NC1=O` [Peptide 17, KLKQKT1N*VVAWT3] (Ms-[N(2-Aminoethyl)Gly][Nle]VVAW[dProlinol(O-CH2CO)]KLQLK; lactam 1-C) was 13 µM.

The test is the same for the next values; noted with them: H929 cells.
Turning to “NorLeuVVSW: cyclic compound with recognition strand NorLeuVVSW (SEQ ID NO:39), methionine replaced by nor-Leucine ([Nle]VVSW; also: cyclic compound, closure not given here)”, the “fold more potent than the parent linear HYD1 peptide” value is recorded as 15 fold. The same measure, in the same setting: with “MVVAW: cyclic compound with recognition strand MVVAW (SEQ ID NO:35), S replaced by A (also: recognition strand of a larger cyclic compound)” the entry was “approximately 10 fold”; with “NorLeuVVAW: cyclic compound combining both modifications, recognition strand NorLeuVVAW (SEQ ID NO:41) ([Nle]VVAW; also: cyclic, closure not given here)”, 30 fold.

Still in this test, the particulars now being: H929 cells, 24 hours, Topro-3 and FACS; read-out: IC50 value in H929 cells.
Take `CCCC[C@@H]1NC(=O)CN(S(C)(=O)=O)CCNC(=O)[C@H](CCCCN)NC(=O)[C@H](CC(C)C)NC(=O)[C@H](CCCCN)NC(=O)[C@H](CC(C)C)NC(=O)[C@H](CCCCN)NC(=O)COC[C@H]2CCCN2C(=O)[C@H](Cc2c[nH]c3ccccc23)NC(=O)[C@H](C)NC(=O)[C@H](C(C)C)NC(=O)[C@H](C(C)C)NC1=O` [Peptide 16, KLKLKT1N*VVAWT3] (Ms-[N(2-Aminoethyl)Gly][Nle]VVAW[dProlinol(O-CH2CO)]KLKLK; lactam 1-C): the IC50 was determined as 1 µM.

Still in this test, the particulars now being: SAR discussion of Table 8.
In the case of `CCCC[C@@H]1NC(=O)[C@H](C(C)C)NC(=O)[C@H](C(C)C)NC(=O)[C@H](C)NC(=O)[C@H](Cc2c[nH]c3ccccc23)NC(=O)COC[C@H]2CCCN2C(=O)[C@H](CCCCN)NC(=O)CN(C)C(=O)[C@H](CCCCN)NC(=O)CN(C)C(=O)[C@H](CCCCN)NC(=O)COC[C@H]2CCCN2C1=O` [Peptide 23, KXKXKT3WAVVN*T3] (cyclo(K[Sar]K[Sar]K[dProlinol(O-CH2CO)]WAVV[Nle][dProlinol(O-CH2CO)])), the “bioactivity of cyclic III peptide analogs, in words” value is recorded as “poor bioactivity”. Same read-out and setting: the value for `CCCC[C@@H]1NC(=O)CN(S(C)(=O)=O)CCNC(=O)[C@H](CCCCN)NC(=O)[C@H](CC(C)C)NC(=O)[C@H](CCCCN)NC(=O)[C@H](CC(C)C)NC(=O)[C@H](CCCCN)NC(=O)CN(S(C)(=O)=O)CCNC(=O)[C@H](Cc2c[nH]c3ccccc23)NC(=O)[C@H](CO)NC(=O)[C@H](C(C)C)NC(=O)[C@H](C(C)C)NC1=O` [Peptide 8, KLKLKT1N*VVSWT1] was “further increase of the peptide's bioactivity”. The same measure, in the same setting: the value for `CCCC[C@@H]1NC(=O)[C@H](C(C)C)NC(=O)[C@H](C(C)C)NC(=O)[C@H](C)NC(=O)[C@H](C)NC(=O)CN(S(C)(=O)=O)CCNC(=O)[C@H](CCCCN)NC(=O)[C@H](CC(C)C)NC(=O)[C@H](CCCCN)NC(=O)[C@H](CC(C)C)NC(=O)[C@H](CCCCN)NC(=O)CN(S(C)(=O)=O)CCNC1=O` [Peptide 15, KLKLKT1AAVVN*T1] was “unexpected improvement in bioactivity”.

Staying with this test, now noted: alanine scan and analogs, Table 4 legend, H929 cells.
`CSCC[C@@H]1NC(=O)CN(S(C)(=O)=O)CCNC(=O)[C@H](CCCCN)NC(=O)[C@H](CC(C)C)NC(=O)[C@H](CCCCN)NC(=O)[C@H](CC(C)C)NC(=O)[C@H](CCCCN)NC(=O)CN(S(C)(=O)=O)CCNC(=O)[C@H](Cc2c[nH]c3ccccc23)NC(=O)[C@H](CO)NC(=O)[C@H](C)NC(=O)[C@H](C(C)C)NC1=O` [III 4]: the “change in activity relative to the inverso peptide L-cINTEGRIN INTERACTION INHIBITORS” value is reported as “decrease in activity”.

With `CSCC[C@@H]1NC(=O)CN(S(C)(=O)=O)CCNC(=O)[C@H](CCCCN)NC(=O)[C@H](CC(C)C)NC(=O)[C@H](CCCCN)NC(=O)[C@H](CC(C)C)NC(=O)[C@H](CCCCN)NC(=O)CN(S(C)(=O)=O)CCNC(=O)[C@H](Cc2c[nH]c3ccccc23)NC(=O)[C@H](CO)NC(=O)[C@H](C(C)C)NC(=O)[C@H](C)NC1=O` [III 5], the “change in activity relative to the inverso peptide L-cINTEGRIN INTERACTION INHIBITORS” value is “increase in activity”. Still for that read-out and setting: with `CSCC[C@@H]1NC(=O)[C@H](C(C)C)NC(=O)[C@H](C(C)C)NC(=O)[C@H](CO)NC(=O)[C@H](Cc2c[nH]c3ccccc23)NC(=O)CN(S(C)(=O)=O)CCNC(=O)[C@H](CCCCN)NC(=O)[C@H](CC(C)C)NC(=O)[C@H](CCCCN)NC(=O)[C@H](CC(C)C)NC(=O)[C@H](CCCCN)NC(=O)CN(S(C)(=O)=O)CCNC1=O` [III 8] the entry was “increases in activity”; with `CSCC[C@@H]1NC(=O)CN(S(C)(=O)=O)CCNC(=O)[C@H](CCCCN)NC(=O)[C@H](CC(C)C)NC(=O)[C@H](CCCCN)NC(=O)[C@H](CC(C)C)NC(=O)[C@H](CCCCN)NC(=O)CN(S(C)(=O)=O)CCNC(=O)[C@H](Cc2c[nH]c3ccccc23)NC(=O)[C@H](C)NC(=O)[C@H](C(C)C)NC(=O)[C@H](C(C)C)NC1=O` [III 3], “increase in activity”.

The same test, now with this note: cyclic III peptide analogs, Table 8; H929 cells, TOPRO 3; read-out: IC50.
Take `CCCC[C@@H]1NC(=O)CN(S(C)(=O)=O)CCNC(=O)[C@H](CCCCN)NC(=O)[C@H](CC(C)C)NC(=O)[C@H](CCCCN)NC(=O)[C@H](CC(C)C)NC(=O)[C@H](CCCCN)NC(=O)COC[C@H]2CCCN2C(=O)[C@H](Cc2c[nH]c3ccccc23)NC(=O)[C@H](C)NC(=O)[C@H]([C@@H](C)CC)NC(=O)[C@H](C(C)C)NC1=O` [Peptide 25, KLKLKT1N*VIAWT3] (Ms-[N(2-Aminoethyl)Gly][Nle]VIAW[dProlinol(O-CH2CO)]KLKLK; lactam 1-C): the IC50 came to 10 µM. Consider `CCCC[C@@H]1NC(=O)CN(S(C)(=O)=O)CCNC(=O)[C@H](CCCCN)NC(=O)[C@H](CC(C)C)NC(=O)[C@H](CCCCN)NC(=O)[C@H](CC(C)C)NC(=O)[C@H](CCCCN)NC(=O)COC[C@H]2CCCN2C(=O)[C@H](Cc2c[nH]c3ccccc23)NC(=O)[C@H](C)NC(=O)[C@H](CC(C)C)NC(=O)[C@H](C(C)C)NC1=O` [Peptide 24, KLKLKT1N*VLAWT3] (Ms-[N(2-Aminoethyl)Gly][Nle]VLAW[dProlinol(O-CH2CO)]KLKLK; lactam 1-C), for which the IC50 turned out to be 10 µM. Still for that read-out and setting: the value for `CCCC[C@@H]1NC(=O)[C@H](C)NC(=O)[C@H](C(C)C)NC(=O)[C@H](C)NC(=O)[C@H](Cc2c[nH]c3ccccc23)NC(=O)CN(S(C)(=O)=O)CCNC(=O)[C@H](CCCCN)NC(=O)[C@H](CC(C)C)NC(=O)[C@H](CCCCN)NC(=O)[C@H](CC(C)C)NC(=O)[C@H](CCCCN)NC(=O)CN(S(C)(=O)=O)CCNC1=O` [Peptide 13, KLKLKT1WAVAN*T1] was 26 µM.
